Experimental findings from US10172963B2, “Method of binding a CSE1L tumor marker in a tumor of an animal” (priority 2011, dated 2019) are described below.

Holding throughout (assay type): cell-based
The subject of test [1] is B16-Ras cells. Put plainly: Gelatin zymography assay of microvesicular MMP-2. Particulars: 50 μM PD98059, or stable CSE1L shRNA transfection; microvesicles from conditioned media of serum-starved cells. How it is done: Microvesicles harvested from cell number-standardized conditioned media were resolved using 10% SDS-PAGE containing 1 mg/ml gelatin. The gel was washed twice with 2.5% Triton X-100 for 30 min to remove SDS, and subsequently incubated in buffer containing 50 mM Tris-HCl (pH 7.6), 200 mM NaCl, and 10 mM CaCl2 at 37° C. for 24 h. The gel was stained with Comassie blue R-250 (0.125% Comassie blue R-250, 50% methanol, 10% acetic acid) for 30 min and destained with destaining solution (20% methanol, 10% acetic acid, 70% ddH2O) until the clear bands were visualized.
(A) Gelatin zymographic activities of MMP-2 in microvesicles harvested form the cell number-standardized conditioned media of serum-starved B16-dEV, B16-Ras, B16-CSE1L, and B16-Ras/anti-CSE1L cells treated with or without DMSO or 50 μM PD98059 for 48 h as indicated. (B) The in vitro invasion abilities of B16-dEV, B16-Ras, B16-CSE1L, and B16-Ras/anti-CSE1L cells analyzed by Matrigel-based invasion assays. The mean±SD numbers of invasive cells were 109.4±12.6, 406.8±23.9, 311.25±32.4, and 46.75±8.7 cells per field for B16-dEV, B16-CSE1L, B16-Ras, and B16-Ras/anti-CSE1L cells, respectively.

Test [2] deals with B16-Ras cells. Kind of test: Levels of microvesicular MMP-2 in microvesicles from conditioned media (immunoblot). Particulars: 50 μM, 48 h, serum-starved B16-Ras cells. How it is done:
(§1) Cells were washed with phosphate-buffered saline (PBS) and lysed in ice-cold radioimmunoprecipitation assay (RIPA) buffer [25 Mm Tris-HCl (pH 7.2), 0.1% SDS, 0.1% Triton X-100, 1% sodium deoxycholate, 150 mM NaCl, 1 mM EDTA, 1 mM sodium orthovanadate, 1 mM phenylmethylsulfonyl fluoride, 10 μg/ml aprotinin, 5 μg/ml leupeptin, 25 mM β-glycerophosphate, 5 mM sodium orthovanadate, and 5 mM sodium fluoride]. The protein concentrations were determined with a BCA protein assay kit (Pierce, Rockford, Ill., USA). Fifty micrograms of each protein sample was loaded onto SDS-polyacrylamide gel. Proteins were transferred to nitrocellulose membranes (Amersham Pharmacia, Buckinghamshire, UK). The membrane was blocked in blocking buffer [1% bovine serum albumin (BSA), 50 mM Tris-HCl (pH 7.6), 150 mM NaCl, and 0.1% Tween-20] at room temperature for 1 h. The blots were then incubated with primary antibodies at 4° C. overnight followed by incubation with secondary antibodies conjugated to horseradish peroxidase for 1 h. The levels of protein were detected by Forte Western HRP Substrate (Millipore Corp., Billerica, Mass., USA) according to the manufacturer's instructions.
Microvesicles were prepared from conditioned media or sera by size exclusion chromatography and ultracentrifugation. […] Fractions (1 ml) were collected, and the protein content was monitored by measuring absorbance at 280 nm. […]

Test [3] concerns B16-Ras cells. Kind of test: CSE1L in cell lysates and conditioned media by immunoblotting. As to conditions: 50 μM, 24 h. How it is done: as §1, with “The membrane was blocked in blocking buffer [1% bovine serum albumin (BSA), 50 mM Tris-HCl (pH 7.6), 150 mM NaCl, and 0.1% Tween-20] at room temperature for 1 h. The blots were then incubated with primary antibodies at 4° C. overnight followed by incubation with secondary antibodies conjugated to horseradish peroxidase for 1 h.” left out
For Immunoblotting with biotin-conjugated antibodies, the biotin-conjugated antibody was prepared by biotinylating anti-CSE1L antibodies using the Biotin Labeling Kit-NH2 kit according to the manufacturer's protocol (Dojindo Laboratories, Kumamoto, Japan). The Immunoblot was then reacted with horseradish peroxidase (HRP)-conjugated streptavidin and the levels of protein were detected by Forte Western HRP Substrate. […]

The subject of test [4] is B16-Ras cells. Kind of test: Threonine phosphorylated CSE1L by immunoprecipitation and immunoblotting. Particulars: 50 μM, 24 h. The method, then:
Cells grown on plastic dishes were washed with PBS and incubated in immunoprecipitation lysis buffer [10 mM Tris-HCl (pH 7.4), 10 mM EDTA, 0.4% deoxycholic acid, 0.5% Triton X-100, 1 mM phenylmethylsulfonyl fluoride, 10 μg/ml aprotinin, 5 μg/ml leupeptin, 25 mM β-glycerophosphate, 5 mM sodium orthovanadate, and 5 mM sodium fluoride] at 4° C. for 20 min. Cells were scraped and disrupted by pipetting. The cell lysate was cleared of insoluble materials by centrifugation at 12,000 g for 10 min at 4° C., and the protein concentrations were determined with a BCA protein assay kit (Pierce). […]
(A) Levels of cellular threonine phosphorylated CSE1L in B16-dEV cells and B16-Ras cells treated with DMSO or 50 μM PD98059 for 24 h were analyzed by immunoprecipitation with anti-CSE1L antibodies and immunoblotting with HRP-conjugated anti-phosphothreonine antibodies. […] (B) Levels of secretory threonine phosphorylated CSE1L in cell number-standardized conditioned media harvested from serum-starved B16-dEV cells and B16-Ras cells treated with DMSO or 50 μM PD98059 for 24 h were analyzed by immunoprecipitation with anti-CSE1L antibodies and immunoblotting with HRP-conjugated anti-phosphothreonine antibodies. […] (D) The levels of CSE1L in the pool of cancer sera and normal sera were analyzed by immunoblotting with anti-CSE1L antibodies (clone 24).

Setting [5] is: conditioned media of serum-starved B16-Ras cells.

Take `COc1cccc(-c2cc(=O)c3ccccc3o2)c1N` [PD98059]: the “Effect on v-H-ras-induced increase in zymographic activity of microvesicular MMP-2” value in the test with B16-Ras cells [1] is given as “attenuated the v-H-ras-induced increase in the zymographic activity of microvesicular MMP-2”. Also, in the test with B16-Ras cells [2], the “Effect on v-H-ras-induced increase in microvesicular MMP-2” value was “attenuated v-H-ras-induced increase in MMP-2 in microvesicles”. Further, the “Effect on CSE1L expression in cells” value in the test on B16-Ras cells [3] (cell lysates) is “did not obviously affect CSE1L expression in cells”. Further, in the test with B16-Ras cells [3] (setting [5]), the “Effect on v-H-ras-induced increase in CSE1L secretion” value is “attenuated v-H-ras-induced increase in CSE1L secretion”. The “Effect on v-H-ras-increased threonine phosphorylation of cellular CSE1L” value with B16-Ras cells [4] (cell lysates of B16-Ras cells) is recorded as “inhibited v-H-ras-increased threonine phosphorylation in CSE1L”. The “Effect on v-H-ras-increased secretion of threonine phosphorylated CSE1L” value in the test with B16-Ras cells [4] (setting [5]) is “inhibited v-H-ras-increased secretion of threonine phosphorylated CSE1L”.
